Data from patent US12352767B2, “Method of treating cognitive decline associated with neurological diseases based on a decrease in FLT4 expression or activity” (University of Virginia Patent Foundation, priority 2018, dated 2025).
“Also recorded” adds a separate entry of the source.

Experiments:
[1] = test system: mice; assay: Open field test; type: in vivo; settings: Visudyne/photoconversion twice, two-week interval, adult mice
Experimental: Open field was performed following a published protocol^51 with minor modifications. Mice were carried to the behavior room to habituate at least 30 min before starting the test. Mice were then placed into the open field arena (made of opaque white plastic material, 35 cm×35 cm) by a blinded experimenter and allowed to explore it for 15 min. Total distance (cm) and % time spent in the center (22 cm×22 cm) were quantified using video tracking software (TopScan, CleverSys, Inc.).

[2] = test system: mice; assay: Novel location recognition test; type: in vivo; settings: Visudyne/photoconversion twice, adult mice
Experimental: Novel location recognition test was performed following a published protocol^52 with modifications. The experimental apparatus used in this study was the same square box made of opaque white plastic (35 cm×35 cm) used in the Open field test. The mice were first habituated to the apparatus for 15 min. Two different plastic objects (one red and the other blue and with different shapes) were then positioned in a defined spatial orientation, namely on each corner of the arena and 5 cm away from each adjacent arena wall. Mice were then placed in the arena (by a blinded experimenter), facing the wall farther away from the objects and allowed to explore the arena and objects for 10 min. Twenty-four hours later, the mice were placed in the same box with the same two objects, but one of them had switched location and was placed in a new quadrant, obliquely to the familiar object (novel location test). The time spent exploring the objects in the familiar and novel locations was also measured for 10 min. Exploration of an object was assumed when the mouse approached an object and touched it with its vibrissae, snout or forepaws and was measured using a video tracking software (TopScan, CleverSys, Inc.). The object location preference (% of time with object) was calculated as the exploration time of the objects in the familiar or in the novel location/total exploration time.

verteporfin [Visudyne]
open field time in center of the arena [1]: No differences between the groups | open field total distance [1]: No differences between the groups | NLR novel location task (time with object in novel location) [2]: No differences between the groups; also recorded: identical | NLR training performance [2]: identical
